From paper PMC3166797 (Journal of medicinal chemistry, 2011)
Like-named read-outs stand apart in the source and are kept apart here.

Key:
rat mGlu4 = rat mGlu4 (Rattus norvegicus, UniProt P31423); experiment: thallium flux in HEK cells expressing rat mGlu4 with GIRK channels; type: cell-based; details: maximal PAM response normalized to control PAM 1 (PHCCC); mean ± SEM
CYP3A4 = CYP3A4 (Homo sapiens, UniProt P08684); experiment: CYP450 enzyme inhibition, CYP3A4
CYP2D6 = CYP2D6 (Homo sapiens, UniProt P10635); experiment: CYP450 enzyme inhibition, CYP2D6; details: P450 2D6, CYP2D6 inhibition
microsomal stability = details: for CLint scaled at 1 µM: rat, microsomes; for Rat Clint: microsomal intrinsic clearance in vitro
CYP1A2 = molecular target: T1, CYP1A2 (Homo sapiens, UniProt P05177); experiment: CYP450 enzyme inhibition, CYP1A2
T1 sequence (P05177 1-516): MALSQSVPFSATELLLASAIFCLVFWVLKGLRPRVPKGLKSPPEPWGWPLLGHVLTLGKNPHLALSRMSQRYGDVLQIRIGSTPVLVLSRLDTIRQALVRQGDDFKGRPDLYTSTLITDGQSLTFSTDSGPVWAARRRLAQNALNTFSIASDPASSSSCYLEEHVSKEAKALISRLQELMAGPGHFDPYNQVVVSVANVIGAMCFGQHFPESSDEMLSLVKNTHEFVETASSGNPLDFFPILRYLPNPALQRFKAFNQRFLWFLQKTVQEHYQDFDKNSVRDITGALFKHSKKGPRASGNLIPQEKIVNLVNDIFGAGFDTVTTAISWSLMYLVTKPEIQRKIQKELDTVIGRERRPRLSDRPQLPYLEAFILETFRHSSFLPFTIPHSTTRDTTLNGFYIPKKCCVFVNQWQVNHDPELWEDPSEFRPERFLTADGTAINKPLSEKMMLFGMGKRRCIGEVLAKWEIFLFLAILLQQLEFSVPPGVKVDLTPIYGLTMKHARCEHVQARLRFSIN

CYP2C9 = CYP2C9 (Homo sapiens, UniProt P11712); experiment: CYP450 enzyme inhibition, CYP2C9; details: P450 2C9, CYP2C9 inhibition
[1] = tested on: acute rodent models of Parkinson's disease; details: icv injection or systemically in a 50% DMSO vehicle; cited from earlier work
mGlu1 = details: cited from earlier work
[2] = dosed systemically in a nontoxic vehicle; cited from earlier work
human mGlu4 = human mGlu4 (Homo sapiens, UniProt Q14833); experiment: cell-based
Chain of human mGlu4 (Q14833 33-912): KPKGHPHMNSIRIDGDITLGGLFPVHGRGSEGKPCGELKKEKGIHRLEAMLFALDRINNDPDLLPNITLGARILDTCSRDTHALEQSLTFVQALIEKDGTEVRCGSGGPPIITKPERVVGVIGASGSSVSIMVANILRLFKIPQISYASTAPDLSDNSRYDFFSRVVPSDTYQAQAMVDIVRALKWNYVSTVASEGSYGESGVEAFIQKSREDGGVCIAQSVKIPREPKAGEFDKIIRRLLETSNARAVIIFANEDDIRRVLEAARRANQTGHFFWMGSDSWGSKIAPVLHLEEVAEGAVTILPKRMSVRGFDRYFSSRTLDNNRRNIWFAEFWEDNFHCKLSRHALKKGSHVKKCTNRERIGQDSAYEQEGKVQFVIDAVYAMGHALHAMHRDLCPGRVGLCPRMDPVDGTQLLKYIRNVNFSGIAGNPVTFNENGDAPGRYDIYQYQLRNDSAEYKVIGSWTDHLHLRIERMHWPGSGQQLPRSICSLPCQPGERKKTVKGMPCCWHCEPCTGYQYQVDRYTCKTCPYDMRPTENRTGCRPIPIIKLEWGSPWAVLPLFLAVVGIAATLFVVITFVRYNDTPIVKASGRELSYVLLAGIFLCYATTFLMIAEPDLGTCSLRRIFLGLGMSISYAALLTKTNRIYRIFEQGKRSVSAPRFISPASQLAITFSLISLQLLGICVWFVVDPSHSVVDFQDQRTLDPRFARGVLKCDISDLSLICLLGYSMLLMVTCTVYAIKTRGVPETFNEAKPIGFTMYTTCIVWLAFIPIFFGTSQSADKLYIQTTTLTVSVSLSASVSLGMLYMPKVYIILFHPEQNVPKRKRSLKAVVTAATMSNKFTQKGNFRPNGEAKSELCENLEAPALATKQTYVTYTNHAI

Chain of CYP2D6 (P10635 whole entry): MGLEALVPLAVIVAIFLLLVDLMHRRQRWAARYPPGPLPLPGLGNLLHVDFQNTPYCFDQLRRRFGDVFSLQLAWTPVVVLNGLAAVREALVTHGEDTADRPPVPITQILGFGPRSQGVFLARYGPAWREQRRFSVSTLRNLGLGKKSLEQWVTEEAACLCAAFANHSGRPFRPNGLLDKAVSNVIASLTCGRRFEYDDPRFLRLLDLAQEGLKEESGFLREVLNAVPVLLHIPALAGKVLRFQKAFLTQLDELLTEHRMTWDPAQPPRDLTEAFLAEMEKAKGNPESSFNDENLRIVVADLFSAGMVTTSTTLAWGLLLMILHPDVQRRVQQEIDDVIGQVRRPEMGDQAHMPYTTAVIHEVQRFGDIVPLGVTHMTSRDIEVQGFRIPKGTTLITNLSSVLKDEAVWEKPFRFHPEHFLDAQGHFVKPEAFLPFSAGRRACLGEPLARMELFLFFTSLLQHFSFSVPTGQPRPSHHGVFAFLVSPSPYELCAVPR
Chain of CYP2C9 (P11712 whole entry): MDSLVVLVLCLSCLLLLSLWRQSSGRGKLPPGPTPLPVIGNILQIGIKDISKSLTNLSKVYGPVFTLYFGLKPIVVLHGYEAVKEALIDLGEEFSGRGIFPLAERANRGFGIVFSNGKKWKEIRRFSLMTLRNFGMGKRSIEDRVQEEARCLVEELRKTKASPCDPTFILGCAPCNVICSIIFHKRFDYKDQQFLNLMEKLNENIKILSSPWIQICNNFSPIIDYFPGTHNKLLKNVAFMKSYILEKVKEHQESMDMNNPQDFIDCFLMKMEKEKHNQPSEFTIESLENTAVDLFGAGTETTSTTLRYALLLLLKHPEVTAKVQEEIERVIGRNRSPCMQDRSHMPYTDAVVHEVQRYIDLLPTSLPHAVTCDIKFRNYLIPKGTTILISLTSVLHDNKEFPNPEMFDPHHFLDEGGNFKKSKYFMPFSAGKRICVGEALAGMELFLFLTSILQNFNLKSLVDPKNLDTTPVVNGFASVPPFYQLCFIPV
Chain of CYP3A4 (P08684 whole entry): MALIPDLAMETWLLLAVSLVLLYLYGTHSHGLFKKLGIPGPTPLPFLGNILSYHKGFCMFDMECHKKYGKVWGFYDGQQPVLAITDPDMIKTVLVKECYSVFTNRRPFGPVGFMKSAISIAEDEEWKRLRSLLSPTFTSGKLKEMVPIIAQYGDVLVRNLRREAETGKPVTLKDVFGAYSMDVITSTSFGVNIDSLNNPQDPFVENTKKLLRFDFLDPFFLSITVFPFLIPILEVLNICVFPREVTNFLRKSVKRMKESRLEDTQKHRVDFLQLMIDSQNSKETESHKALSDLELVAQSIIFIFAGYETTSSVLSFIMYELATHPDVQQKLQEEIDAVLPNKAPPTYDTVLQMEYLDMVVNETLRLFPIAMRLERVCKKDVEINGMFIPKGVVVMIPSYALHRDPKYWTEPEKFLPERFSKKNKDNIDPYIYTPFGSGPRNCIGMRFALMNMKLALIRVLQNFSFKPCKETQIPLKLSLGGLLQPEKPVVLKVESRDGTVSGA
Chain of rat mGlu4 (P31423 33-912): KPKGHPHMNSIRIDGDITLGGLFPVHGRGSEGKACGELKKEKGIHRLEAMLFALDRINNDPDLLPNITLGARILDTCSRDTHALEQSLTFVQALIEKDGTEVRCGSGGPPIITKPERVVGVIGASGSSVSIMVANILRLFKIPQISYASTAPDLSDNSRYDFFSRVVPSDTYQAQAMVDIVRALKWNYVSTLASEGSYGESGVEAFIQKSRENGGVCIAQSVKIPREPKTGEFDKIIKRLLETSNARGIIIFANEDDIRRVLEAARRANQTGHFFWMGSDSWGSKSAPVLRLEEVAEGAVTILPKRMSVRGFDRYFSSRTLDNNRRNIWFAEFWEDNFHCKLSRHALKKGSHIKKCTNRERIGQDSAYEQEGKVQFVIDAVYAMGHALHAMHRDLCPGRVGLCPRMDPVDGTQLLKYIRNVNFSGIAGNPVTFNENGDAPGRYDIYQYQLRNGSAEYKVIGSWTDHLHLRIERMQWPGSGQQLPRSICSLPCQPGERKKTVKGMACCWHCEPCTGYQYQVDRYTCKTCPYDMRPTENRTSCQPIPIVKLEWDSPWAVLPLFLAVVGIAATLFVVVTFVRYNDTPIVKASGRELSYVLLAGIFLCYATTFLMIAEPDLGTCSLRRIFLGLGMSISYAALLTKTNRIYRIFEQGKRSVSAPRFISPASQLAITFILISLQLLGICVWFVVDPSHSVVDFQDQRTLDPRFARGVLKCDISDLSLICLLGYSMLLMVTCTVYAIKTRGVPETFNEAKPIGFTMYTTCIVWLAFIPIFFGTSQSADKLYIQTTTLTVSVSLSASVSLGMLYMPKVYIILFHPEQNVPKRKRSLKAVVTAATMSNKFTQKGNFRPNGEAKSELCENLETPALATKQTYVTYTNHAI

COc1cc(NC(=O)c2ccccn2)ccc1NC(=O)c1ccccc1Cl [Compound 9g, N-(4-(2-chlorobenzamido)-3-methoxyphenyl)picolinamide]
GluMax (%Cmpd 1), rat mGlu4 (rat mGlu4): 147.0 %Cmpd 1
IC50 (CYP3A4): > 30 µM
IC50 (CYP2D6): 12.8 µM
CLint scaled at 1 µM (microsomal stability): 42.6 mL/min/kg
IC50 (CYP1A2): > 30 µM
IC50 (CYP2C9): 14.3 µM

O=C(Nc1ccc(NC(=O)c2ccccc2Cl)c(F)c1)c1ccccn1 [Compound 10d]
CLint scaled at 1 µM (microsomal stability): 31.2 mL/min/kg

O=C(Nc1ccccc1)[C@]12C[C@H]1/C(=N\O)c1ccccc1O2 (stereo in doubt) [Compound 1, N-phenyl-7-(hydroxyimino)cyclopropa[b]chromen-1a-carboxamide]
activity in acute rodent models of Parkinson's disease [1]: active
activity at mGlu1 (mGlu1): partial antagonist activity

COc1cc(NC(=O)c2ccccn2)ccc1Cl [Compound 3]
CNS penetration [2]: CNS penetrant

O=C(Nc1ccc(NC(=O)c2ccccc2Cl)c(Cl)c1)c1ccccn1 [Compound 10a, N-(3-chloro-4-(2-chlorobenzamido)phenyl)picolinamide]
IC50 (CYP3A4): > 30 µM
IC50 (CYP2D6): 13.1 µM
Rat Clint (microsomal stability): acceptable
CLint scaled at 1 µM (microsomal stability): 44.9 mL/min/kg
IC50 (CYP1A2): > 30 µM
IC50 (CYP2C9): 11.8 µM

COc1cc(NC(=O)c2nccs2)ccc1NC(=O)c1ccccc1Cl [Compound 9e]
GluMax (%Cmpd 1), rat mGlu4 (rat mGlu4): 133.9 %Cmpd 1
Rat Clint (microsomal stability): poor metabolic stability
CLint scaled at 1 µM (microsomal stability): 185 mL/min/kg

O=C(Nc1ccc(NC(=O)c2ccc(F)cc2Cl)c(Cl)c1)c1ccccn1 [Compound 12d]
CLint scaled at 1 µM (microsomal stability): 54 mL/min/kg

O=C(Nc1ccc(NC(=O)c2ccccc2Cl)cc1)c1ccccn1 [Compound 10c]
EC50 (human mGlu4): 3.75 µM

Cc1ccccc1C(=O)Nc1ccc(NC(=O)c2ccccn2)cc1Cl [Compound 12a, N-(3-chloro-4-(2-methylbenzamido)phenyl)picolinamide]
IC50 (CYP3A4): > 30 µM
IC50 (CYP2D6): 12 µM
Rat Clint (microsomal stability): acceptable
CLint scaled at 1 µM (microsomal stability): 46.2 mL/min/kg
IC50 (CYP1A2): > 30 µM
IC50 (CYP1A2; human): > 10 µM
IC50 (CYP2C9): 14.1 µM

COc1ccccc1C(=O)n1ccc2cc(NC(=O)c3ccccn3)ccc21 [Compound 15]
Rat Clint (microsomal stability): poor metabolic stability
CLint scaled at 1 µM (microsomal stability): 605 mL/min/kg

O=C(Nc1ccc(NC(=O)c2ccccc2Cl)c(C(F)(F)F)c1)c1ccccn1 [Compound 10b]
EC50 (human mGlu4): 0.556 µM

COc1cc(NC(=O)c2cnccn2)ccc1NC(=O)c1ccccc1Cl [Compound 9h]
EC50 (human mGlu4): 0.0995 µM
